Columns and labels:
[1] = target: T1, LmoMenD (2-succinyl-5-enolpyruvyl-6-hydroxy-3-cyclohexene-1-carboxylate synthase, SEPHCHC synthase) (Listeria monocytogenes, UniProt A0A0H3GD77); design: gene menD
T1 sequence (A0A0H3GD77 1-580): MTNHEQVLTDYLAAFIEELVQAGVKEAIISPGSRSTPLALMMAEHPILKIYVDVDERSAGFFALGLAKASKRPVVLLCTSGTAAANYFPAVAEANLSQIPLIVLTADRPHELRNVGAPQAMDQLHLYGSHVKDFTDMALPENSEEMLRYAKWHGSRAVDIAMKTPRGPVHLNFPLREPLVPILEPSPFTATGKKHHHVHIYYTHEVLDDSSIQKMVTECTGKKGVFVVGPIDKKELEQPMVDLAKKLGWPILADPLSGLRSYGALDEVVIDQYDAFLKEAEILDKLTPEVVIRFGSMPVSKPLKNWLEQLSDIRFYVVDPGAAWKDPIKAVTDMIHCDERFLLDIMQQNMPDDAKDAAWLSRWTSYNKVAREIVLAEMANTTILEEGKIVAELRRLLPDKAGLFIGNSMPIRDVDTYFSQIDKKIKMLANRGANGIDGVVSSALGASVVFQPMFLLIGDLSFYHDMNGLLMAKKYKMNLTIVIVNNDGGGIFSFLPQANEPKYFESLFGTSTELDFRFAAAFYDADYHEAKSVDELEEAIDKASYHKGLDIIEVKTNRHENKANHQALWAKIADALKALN

[2] = target: T1, LmoMenD (2-succinyl-5-enolpyruvyl-6-hydroxy-3-cyclohexene-1-carboxylate synthase, SEPHCHC synthase); experiment: UV/Vis assay of isochorismate consumption; […] decrease of activity at […]; format: biochemical; design: gene menD; full-length LmoMenD, strain 10403s, tag removed by TEV cleavage
[3] = target: the molecule itself; experiment: crystal structure; LmoMenD with ThDP and Mg2+ (PDB 9e9b) or with intermediate I after a 2-oxoglutarate soak (PDB 9mnn); space group P6(4)22, one molecule in the asymmetric unit, tetramer by crystallographic symmetry; PISA analysis of assemblies

O=C(O)CCC(=O)C(=O)O [2-oxoglutarate]
UV/Vis enzyme kinetics (Km, value in supplement); turned over in crystallo to in [1]: the Km values for ThDP, 2-oxoglutarate and isochorismate and kcat were determined

O=C(O)c1cc(O)c2ccccc2c1O [DHNA, 1,4-dihydroxy-2-naphthoic acid]
inhibition at 12.5 µM [2]: 34%

B1: Listeria monocytogenes MenD (2-succinyl-5-enolpyruvyl-6-hydroxy-3-cyclohexene-1-carboxylate (SEPHCHC) synthase) (enzyme, Listeria monocytogenes (strain 10403s))
chain: GAMVTNHEQVLTDYLAAFIEELVQAGVKEAIISPGSRSTPLALMMAEHPILKIYVDVDERSAGFFALGLAKASKRPVVLLCTSGTAAANYFPAVAEANLSQIPLIVLTADRPHELRNVGAPQAMDQLHLYGSHVKDFTDMALPENSEEMLRYAKWHGSRAVDIAMKTPRGPVHLNFPLREPLVPILEPSPFTATGKKHHHVHIYYTHEVLDDSSIQKMVTECTGKKGVFVVGPIDKKELEQPMVDLAKKLGWPILADPLSGLRSYGALDEVVIDQYDAFLKEAEILDKLTPEVVIRFGSMPVSKPLKNWLEQLSDIRFYVVDPGAAWKDPIKAVTDMIHCDERFLLDIMQQNMPDDAKDAAWLSRWTSYNKVAREIVLAEMANTTILEEGKIVAELRRLLPDKAGLFIGNSMPIRDVDTYFSQIDKKIKMLANRGANGIDGVVSSALGASVVFQPMFLLIGDLSFYHDMNGLLMAKKYKMNLTIVIVNNDGGGIFSFLPQANEPKYFESLFGTSTELDFRFAAAFYDADYHEAKSVDELEEAIDKASYHKGLDIIEVKTNRHENKANHQALWAKIADALKALN
notes: MenD, Listeria monocytogenes strain 10403s, menD gene cloned from genomic DNA with printed primers that run from the start to the stop codon; Untagged protein after rTEV cleavage; The forward primer reads ATG GTG ACA..., so the MV at the start may hold one residue more than the natural protein (surmised from the residue numbering); also called LmoMenD; source: E. coli BL21 (DE3), purified …
stoichiometry N [3]: 4

— PMC12312563, “Structures of Listeria monocytogenes MenD in ThDP-bound and in-crystallo captured intermediate I-bound forms” (Acta Crystallographica Section F: Structural Biology …, 2025)
